{
  "source": "paper PMC11267363",
  "about": "“Supramolecular Nanofibers Ameliorate Bleomycin‐Induced Pulmonary Fibrosis by Restoring Autophagy” (Advanced Science, 2024)",
  "system": "TRB3/p62 PPIs in lung tissue",
  "assay": "Co-IP, western blot and q-PCR of lung tissues from bleomycin mice",
  "format": "in vivo",
  "settings": "i.v.",
  "experimental": "We attempted to elucidate the mechanism of Ac-GFFY-A2 peptide nanofibers in ameliorating bleomycin-induced lung fibrosis at the molecular level. The nanofibers were administered to the lung fibrosis mice model via intravenous (i.v.) injection, saline treatment as the control group. The mice were sacrificed on day 21 and lung tissues were harvested for the following detection. […] Those results confirmed the potential therapeutic efficacy of peptide nanofibers in pulmonary fibrosis at both the transcriptional and translational levels. […] Gene expression was determined relative to that of the endogenous reference gene (Gapdh) using the 2^-ΔΔCt method. […] The protein concentration was measured using BCA Protein Assay Kit (Thermo Scientific). […] The protein transferred PVDF membranes were incubated with following primary antibodies at 4°C overnight: Then the membranes were incubated with horseradish peroxidase (HRP)-conjugated secondary antibodies at room temperature for 1 h, and protein signals were detected using an enhanced chemiluminescence kit (Pierce). […] The co -precipitates were resolved using SDS-PAGE and detected with immunoblotting. […] Fluorescence imaging was performed using a IVIS Lumina II imaging (PerkinElmer, USA) at different time point post injection. […]",
  "data": [
    {"substance": "Ac-GFFYGGWLTRLLQTK-OH [Ac-GFFY-A2]", "values": [
      {"measurement": "mRNA expression levels of Col 1, FN and α-SMA in lung tissues (q-PCR)", "setting": "day 21, versus saline treatment control group", "value": "significantly lower"},
      {"measurement": "TRB3/p62 interaction in lung tissue (co-IP)", "setting": "lung tissues harvested on day 21", "value": "could disturb the interaction between TRB3 and p62 in lung tissue"}
    ]}
  ]
}
